Structures are written as SMILES.

Holding throughout (type): in vivo
Assay [1] has as its system pea aphid (Acyrthosiphon pisum). The experiment in a line: Foliar application, pea aphid mortality. The following applies: 48 h, read-out: Mortality (% killed). Here is the method:
(§1) The compounds were also tested in foliar applications at various concentrations in aqueous solutions containing 10% acetone and 0.25% emulsifier. The plants (English fava bean for pea aphid and pinto bean for the remaining species) were placed on a revolving turntable in a hood, and the test solutions were applied with a sprayer. The test solutions were applied to the upper and lower surfaces of the plant leaves while the turntable revolved 10 times (5 for upper surface and 5 for lower surface). The total spray time was approximately one minute, and the leaves were covered to runoff. In every case the lowest rate was applied first and the highest rate last. The plants were then allowed to dry. The treated leaves were removed and placed in 240 ml or 480 ml wax treated containers. Ten individuals of the appropriate species were placed in each container and the container capped. Mortality was read 48 hours post-treatment unless otherwise noted. Two replicates of ten individuals were made at each rate. Foliar evaluation used southern armyworm (Spodoptera eridania), Mexican bean beetle (Epilachna varivestis), pea aphid (Acyrthosiphon pisum), and twospotted spider mite (Tetranychus urticae).

For assay [2], the system named is large milkweed bug (Oncopeltus fasciatus). The experiment in a line: Topical application to large milkweed bug. The note with it: MWB, 24 hours after application. How it is done:
(§2) The activity was evaluated in topical application to southern armyworm (Spodoptera eridania), Mexican bean beetle (Epilachna varivestis), large milkweed bug (Oncopeltus fasciatus), cabbage looper (Trichoplusia ni), and tobacco budworm (Heliothis virescens). Two replicates of 10 test larvae per replicate were placed in 9 cm petri dishes, each lined with a piece of filter paper and a food source. On the second or third dorsal thoracic segment of each larva was placed a 1 microliter droplet containing the desired amount of the test compound in acetone. The toxic effect of the compound was determined 24 hours after application. An insect was considered dead if it could no longer right itself and move in an oriented pattern.

The test system of assay [3] is Mexican bean beetle (Epilachna varivestis). The experiment in a line: Foliar application, Mexican bean beetle mortality. The following applies: 48 h, read-out: Mortality (% killed). How it is done:
as §1

The test system of assay [4] is twospotted spider mite (Tetranychus urticae). Kind of assay: Foliar application, twospotted spider mite mortality. The note with it: 48 h, read-out: Mortality (% killed). How it is done:
as §1

The subject of assay [5] is southern armyworm (Spodoptera eridania). Kind of assay: Topical application to southern armyworm larvae. The following applies: SAW, 24 hours after application. Here is the method: as §2
Assay [6] relates to cabbage looper (Trichoplusia ni). Kind of assay: Topical application to cabbage looper. The note with it: CL, 24 hours after application. Here is the method: as §2
Assay [7] has as its system Mexican bean beetle (Epilachna varivestis). The experiment in a line: Topical application to Mexican bean beetle. The following applies: MBB, 24 hours after application. Here is the method: as §2
The test system of assay [8] is tobacco budworm (Heliothis virescens). Kind of assay: Topical application to tobacco budworm. The following applies: TBW, 24 hours after application. Here is the method:
as §2

The test system of assay [9] is southern armyworm (Spodoptera eridania). Kind of assay: Foliar application, southern armyworm mortality. The note with it: 48 h, read-out: Mortality (% killed). How it is done: as §1

Consider `CC1(C)[C@H](C(=O)OCc2cccc3c2CCc2ccccc2-3)[C@@H]1C=C(Cl)C(F)(F)F` (relative stereo) [Ex. II (cis), (9,10-dihydro-1-phenanthryl)methyl cis-3-(2-chloro-3,3,3-trifluoromethyl-1-propenyl)-2,2-dimethylcyclopropanecarboxylate], for which, in assay [1], the mortality at 10 ppm turned out to be 85%. Also, the LD50 in assay [2] was 170 ng/insect; in [5], 36 ng/insect; in [6] it was 61 ng/insect; in assay [7] it was 9.4 ng/insect; in [8], 45 ng/insect. Moreover, the mortality at 8 ppm is 90% in assay [3] and 30% in [9]. The mortality at 32 ppm in assay [4] was 78%; in [9] it was 95%.

A word on the mortality: it is the percentage killed.

Values taken from patent publication US4433182A, “Insecticidal 2,2'-bridged[1,1'-biphenyl]-3-ylmethyl esters” (FMC Corporation, priority 1981, dated 1984).
